One data set has as its system E. coli clin. isolate. Format: cell-based, Escherichia coli. As to conditions: clin. isolate. The text has this:
(§1) The American Type Culture Collection (ATCC, Rockville, MD, USA) strains and Escherichia coli MG1655 were used as standard bacterial strains. Gram-negative ATCC strains consisted of Escherichia coli (ATCC 25922), Pseudomonas aeruginosa (ATCC 27853), Acinetobacter baumannii (ATCC 19606), and Klebsiella pneumoniae (ATCC 13883). The only Gram-positive standard strain chosen for testing was Staphylococcus aureus (ATCC 29213). Clinical isolates with confirmed multidrug-resistance phenotype were obtained from different wards of the University Hospital Center, Split, Croatia. We described their origin, antibiograms, and resistance phenotype previously. In the same paper, we described the procedure for antimicrobial susceptibility testing on planktonic cells, using the microdilution method in 96-well microtiter plates.
(§2) Briefly, cells were grown on agar plates and a single colony was sampled to generate a liquid culture (LC) grown overnight at 37 °C. The culture was sampled, resuspended in fresh medium, and allowed to grow at 37 °C, until reaching the mid-exponential phase. Lysogeny broth (LB) was used in the case of the E. coli MG1655 cells. Mueller Hinton (MH) medium was used for all other bacterial strains. Serial 2-fold dilutions of the peptide (64 μM to 0.0625 μM) were prepared from peptide stock solution in PBS, and added to a final load of 5 × 10^5 CFU/mL in 100 μL total volume of medium per well in a 96-well plate (Brand 781660). Bacterial cultures were incubated with peptides for 18 h to 24 h at 37 °C. The minimum inhibitory concentration (MIC) was defined as the lowest concentration of the peptide, at which no visible bacterial growth was observed. The MIC for each of the tested peptides was determined in at least three individual assays under the same laboratory conditions. […] At the end of the incubation period for MIC or MBC, the determination of the OD600 was analyzed.

The next data set has as its system P. aerug. clin. isolate. The data set is classed as cell-based, Pseudomonas aeruginosa.
Source text: as §1, §2

A further data set deals with K. pneum. clin. isolate. The data set is classed as cell-based, Klebsiella pneumoniae.
Source text: as §1, §2

For data set [1], the system named is Acinetobacter baumannii (ATCC 19606). The data set is classed as cell-based. Conditions: ATCC 19606.
Source text: as §1, §2

Data set [2] relates to Escherichia coli (ATCC 25922). The data set is classed as cell-based. As to conditions: ATCC 25922.
Source text: as §1, §2

Another data set relates to Escherichia coli MG1655. The data set is classed as cell-based. Conditions: MG1655.
Source text: as §1, §2

Data set [3] deals with Klebsiella pneumoniae (ATCC 13883). The data set is classed as cell-based. Conditions: ATCC 13883.
Source text: as §1, §2

The subject of data set [4] is Pseudomonas aeruginosa (ATCC 27853). Format: cell-based. Conditions: ATCC 27853.
Source text: as §1, §2

In data set [5] the test system is Staphylococcus aureus (ATCC 29213). Format: cell-based. Conditions: for PEa(20) = SI/MIC(aureus): ATCC 29213, 18 h.
Source text: as §1, §2

For the next data set, the system named is A. baum. clin. isolate. The data set is classed as cell-based, Acinetobacter baumannii.
Source text: as §1, §2

In a further data set the test system is S. aureus clin. isolate. The data set is classed as cell-based, Staphylococcus aureus. Conditions: clin. isolate.
Source text: as §1, §2

In data set [6] the test system is human erythrocytes. Kind of data set: Hemolysis of human erythrocytes. The data set is classed as cell-based. Conditions: 0.5% RBC in PBS, 1 h, 37 °C, absorbance 450 nm, triplicate; for HC10: concentration causing 10% hemolysis, 0.2% Triton = 100%; for HC20: concentration causing 20% hemolysis; for HC50: concentration causing 50% hemolysis. How it is done:
Fresh blood was obtained from a healthy donor. Blood was stored in a tube containing EDTA at 4 °C and used within 24 h. Before use, 1 mL of blood was centrifuged (400× g, 10 min), and the supernatant was discarded. Moreover, 500 μL cold PBS with EDTA (1 mM) was added, mixed and centrifuged. The supernatant was discarded. Furthermore, 500 μL of cold PBS with EDTA (1 mM) was added, from which a dilution of 1% blood was made. Peptides were prepared in PBS at a 2 × concentration in 100 µL. […] The suspension was incubated at 37 °C for 1 h and centrifuged at 10,000× g for 5 min. […] After centrifugation, the supernatant was added to a 96-well microtiter plate (150–180 μL), and the absorbance was measured at 450 nm, using EnSight Multimode Plate Reader (PerkinElmer, Inc.). Each measurement was done in triplicate. […] We opted to also include the extrapolated HC50 in our results, to permit comparisons with older toxicity results. However, the HC20 measurements were used for ranking the peptides according to their selectivity and overall performance (Figure 1 and Figure 2 and Table 2).

The test system of data set [7] is human primary dermal fibroblasts. The data set is classed as cell-based. Conditions: 24 h. On the procedure: (§3) Prostate cancer cells were donated by the University of Split, School of Medicine. Cells were cultured in RMPI-1640 medium, supplemented with 10% FBS, 1% Penicillin-Streptomycin, and 1% L-Glutamine. Human dermal fibroblasts were purchased from Biopredic (France) and cultured in DMEM medium, supplemented with 10% FBS and 1% Penicillin-Streptomycin. All cell lines were maintained in a humidified incubator with 5% CO2 at 37 °C. Cells were detached using the trypsin-EDTA solution and sub-cultured (7000 cells/well) in a 96-well plate overnight. Peptide stock solutions were prepared in PBS, and cancer cells were treated with 2-fold serial dilutions for 24 h at 37 °C, with 5% CO2. The toxicity of 6 selected peptides was assessed by a standard MTT assay. Treated cells were incubated with MTT working solution (0.5 mg/mL Thiazolyl Blue Tetrazolium Bromide) for 4 h at 37 °C with 5% CO2. Precipitated formazan was dissolved in 200 µL DMSO and absorbance was measured at 595 nm with EnSight Multimode Plate Reader (PerkinElmer, Inc.)

Data set [8] deals with PC-3 prostate cancer cell line. The data set is classed as cell-based, human. As to conditions: 24 h. On the procedure: as §3
For data set [9] the following is noted: cited from earlier work. From the text:
The MAPA analog of the MAP cell-penetrating peptide is five times less hemolytic and has at least two times stronger antibacterial activity than MAP [73] (Table 2). Accordingly, by introduced substitutions, we increased the selectivity index by at least one order of magnitude, and converted a strongly hemolytic, predominantly cell-penetrating peptide with no antibacterial selectivity (SI = 1, [73]), into a potent peptide antibiotic. MAP is an important molecule for engineering new anticancer agents, but as far as we can tell, MAPA is the first known selective anticancer MAP an ...

Data set [10] relates to human erythrocytes. Conditions: cited from earlier work. From the text: The cell-penetrating ability is inherent to some amphipathic peptides with a high percentage of cationic residues. More than five arginines are required to direct membrane penetration through the eukaryotic membrane. This condition is fulfilled by guananin 2, the PenArg analog of penetratin, and T2R1, but not by T2. Penetratin, with the sequence […], is a well-known cell-penetrating peptide, which is furthermore an antimicrobial and anticancer peptide. That peptide is, to some degree, toxic to HeLa and Jurkat cancer cell lines. The toxicity to HeLa ...

Broadly, the HC50 is the concentration giving 50% haemolysis. A lower HC50 goes with stronger haemolysis. What is called IC50 is the midpoint of a concentration-inhibition curve.

Values after ≈ are worked out from the molar mass of the structure shown. Peptide text beside a SMILES is read from it. Some results are limits rather than exact numbers.

For `CC[C@H](C)[C@H](NC(=O)[C@H](CCCNC(=N)N)NC(=O)[C@H](C)NC(=O)[C@H](Cc1ccc(O)cc1)NC(=O)[C@H](CCCNC(=N)N)NC(=O)[C@H](CCCNC(=N)N)NC(=O)[C@H](Cc1c[nH]c2ccccc12)NC(=O)[C@H](Cc1c[nH]cn1)NC(=O)[C@@H](N)Cc1c[nH]cn1)C(=O)NCC(=O)N[C@@H](Cc1ccccc1)C(=O)N[C@@H](CCCNC(=N)N)C(=O)N[C@@H](C)C(=O)N[C@H](C(=O)N[C@@H](CCCNC(=N)N)C(=O)N[C@H](C(=O)N[C@H](C(=O)N[C@H](C(=O)NCC(=O)N[C@@H](CCCCN)C(N)=O)[C@@H](C)CC)C(C)C)[C@@H](C)O)C(C)C` [T2] (H-HHWRRYARIGFRAVRTVIGK-NH2), in the data set with E. coli clin. isolate, the “MIC (E. coli clin. isolate)” value was determined as 8 µM (≈ 19.8 µg/mL). Also, in the data set with P. aerug. clin. isolate, the “MIC (P. aerug. clin. isolate)” value amounted to 32 µM (≈ 79.3 µg/mL). Moreover, the “MIC (K. pneum. clin. isolate)” value with K. pneum. clin. isolate is 8 µM (≈ 19.8 µg/mL). Besides, in data set [1], the “MIC (A. baum. ATCC 19606)” value was found to be 1 µM (≈ 2.48 µg/mL). In addition, the “MIC (E. coli ATCC 25922)” value in data set [2] lay within 0.5 to 1 µM. Moreover, in the data set with Escherichia coli MG1655, the “MIC (E. coli MG1655)” value is over 32 µM. The “MIC (K. pneum. ATCC 13883)” value in [3] worked out at 4 µM (≈ 9.92 µg/mL). Further, the “MIC (P. aerug. ATCC 27853)” value in data set [4] came out at 4 µM (≈ 9.92 µg/mL). Also, in [5], the “MIC (S. aureus ATCC 29213)” value was 1 µM (≈ 2.48 µg/mL) and the “PEa(20) = SI/MIC(aureus)” value amounted to 3 µM⁻¹. The “MIC (A. baum. clin. isolate)” value in the data set on A. baum. clin. isolate stood at 8 µM (≈ 19.8 µg/mL). Besides, in the data set on S. aureus clin. isolate, the “MIC (S. aureus clin. isolate)” value is 4 µM (≈ 9.92 µg/mL). In the data set with human erythrocytes [6], the HC10 was 1.4 µM, the HC20 stood at 3 µM and the HC50 was determined as 28 µM. In [7], it took 35 µM to reach half-maximal inhibition (IC50). Moreover, in data set [8], the “(TI/ IC50C) vs. MP1” value is on record as 8.4, the IC50 worked out at 10 µM, the “TI (HC20/IC20C)” value is reported as 1 and the “TI (IC50F/IC50C)” value worked out at 3.5. The “TI/ IC50C” value in data set [8] is reported as 0.35.
As for `CC[C@H](C)[C@H](NC(=O)[C@@H](NC(=O)[C@H](CCCNC(=N)N)NC(=O)CNC(=O)[C@@H](NC(=O)[C@H](CCCCN)NC(=O)[C@H](CCCCN)NC(=O)CNC(=O)[C@@H](NC(=O)[C@H](CCCCN)NC(=O)[C@H](CCCCN)NC(=O)[C@@H](NC(=O)[C@@H](NC(=O)[C@H](CCCCN)NC(=O)[C@H](CCCCN)NC(=O)[C@@H](NC(=O)[C@@H](NC(=O)[C@H](CCC(=O)O)NC(=O)[C@H](CCCNC(=N)N)NC(=O)CNC(=O)[C@@H](NC(=O)CN)[C@@H](C)CC)[C@@H](C)CC)[C@@H](C)CC)[C@@H](C)CC)[C@@H](C)CC)[C@@H](C)CC)[C@@H](C)CC)[C@@H](C)CC)C(N)=O` [ZYK1] (H-GIGREIIKKIIKKIGKKIGRII-NH2), the “MIC (E. coli clin. isolate)” value with E. coli clin. isolate was 2 µM (≈ 4.95 µg/mL). The “MIC (P. aerug. clin. isolate)” value against P. aerug. clin. isolate came to 16 µM (≈ 39.6 µg/mL). The “MIC (K. pneum. clin. isolate)” value in the data set on K. pneum. clin. isolate is reported as 4 µM (≈ 9.9 µg/mL). Further, the “MIC (A. baum. ATCC 19606)” value in data set [1] is recorded as 2 µM (≈ 4.95 µg/mL). In data set [2], the “MIC (E. coli ATCC 25922)” value amounted to 1 µM (≈ 2.47 µg/mL). Further, the “MIC (E. coli MG1655)” value in the data set on Escherichia coli MG1655 was 4 µM (≈ 9.9 µg/mL). Also, the “MIC (K. pneum. ATCC 13883)” value in data set [3] was determined as 2 µM (≈ 4.95 µg/mL). For the same compound, the “MIC (P. aerug. ATCC 27853)” value in data set [4] was 16 µM (≈ 39.6 µg/mL). In data set [5], the “MIC (S. aureus ATCC 29213)” value came out at 1 µM (≈ 2.47 µg/mL) and the “PEa(20) = SI/MIC(aureus)” value is 8 µM⁻¹. Moreover, the “MIC (A. baum. clin. isolate)” value against A. baum. clin. isolate stood at 2 µM (≈ 4.95 µg/mL). The “MIC (S. aureus clin. isolate)” value with S. aureus clin. isolate turned out to be 2 µM (≈ 4.95 µg/mL). Moreover, in the data set with human erythrocytes [6], the HC10 was 3 µM, the HC20 stood at 8 µM and the HC50 was found to be 29 µM. Further, the IC50 in data set [7] turned out to be 10 µM. Besides, in data set [8], the “(TI/ IC50C) vs. MP1” value stood at 107, the IC50 turned out to be 1.5 µM, the “TI (HC20/IC20C)” value turned out to be 8.6 and the “TI (IC50F/IC50C)” value is 6.7. For the same compound, in data set [8], the “TI/ IC50C” value turned out to be 4.47.
In the case of “KLALKLALKALKAALKLA [MAP, cell-penetrating peptide, template of mapegin]”, in [9], the “antibacterial selectivity SI” value is given as 1.
For the compound “RQYMRQIEQALRYGYRISRR [guananin 2, arginine-rich designed peptide from the literature]”, the selectivity index result with human erythrocytes [10] is listed as “about 24”.

Values taken from publication PMC7436000, “The Spectrum of Design Solutions for Improving the Activity-Selectivity Product of Peptide Antibiotics against Multidrug-Resistant Bacteria and Prostate Cancer PC-3 Cells” (Molecules, 2020).
